Experimental data reported in PMC5099944, “Design, synthesis and biological evaluation of hybrids of β-carboline and salicylic acid as potential anticancer and apoptosis inducing agents” (Scientific Reports, 2016).
Read-outs that look alike come from different tables or passages of the source.

What was measured:
H460 cells = assay: MTT assay, proliferation of H460 cells; assay type: cell-based; details: NCI-H460, 48 h, H460 human lung cancer cells, read-out: In vitro cytotoxicity (IC50) H460
Experimental: (§1) The in vitro antitumor activities of the synthesized compounds 7a-l and 8a-l against five human cancer cells were evaluated in MTT assays using 5-fluorouracil (5-FU) and harmine as positive controls. These cells are human hepatocellular carcinoma cells (SMMC-7721 and Hep G2), human colon cancer cell lines (HCT116), human bladder carcinoma cells (EJ), and human lung cancer cells (H460).
(§2) Hepatocellular carcinoma cells (SMMC-7721 and Hep G2), Human colon cancer cell lines (HCT116), human bladder carcinoma cells (EJ) or human lung cancer cells (H460) at 10^4 cells per well were cultured in 10% FBS DMEM in 96-well flat-bottom microplates overnight. The cells were incubated in triplicate with, or without, different concentrations of each test compound for 48 h. During the last 4 h incubation, 30 μL of tetrazolium dye (MTT) solution (5 mg mL^−1) was added to each well. The resulting MTT-formazan crystals were dissolved in 150 μL DMSO, and absorbance was measured spectrophotometrically at 570 nm using an ELISA plate reader. The inhibition induced by each test compound at the indicated concentrations was expressed as a percentage. The concentration required for 50% inhibition (IC50) was calculated using the software (GraphPadPrism Version 4.03).

SMMC-7721 cells = assay: MTT assay, proliferation of SMMC-7721 cells; assay type: cell-based, human; details: Homo sapiens; for IC50: SMMC-7721, 48 h
Experimental: as §1, §2

HCT116 cells = assay: MTT assay, proliferation of HCT116 cells; assay type: cell-based; details: Homo sapiens, HCT-116, 48 h, read-out: In vitro cytotoxicity (IC50) HCT116
Experimental: as §1, §2

Hep G2 cells = assay: MTT assay, proliferation of Hep G2 cells; assay type: cell-based; details: Homo sapiens, HepG2, 48 h, read-out: In vitro cytotoxicity (IC50) Hep G2
Experimental: as §1, §2

EJ cells = assay: MTT assay, proliferation of EJ cells; assay type: cell-based; details: 48 h, EJ human bladder carcinoma cells, read-out: In vitro cytotoxicity (IC50) EJ
Experimental: as §1, §2

[1] = read-out: In vitro cytotoxicity (IC50) SMMC-7721, MTT assay, 48 h, SMMC-7721 human hepatocellular carcinoma cells

Row | Compound | IC50 (H460 cells) [µM] | IC50 (SMMC-7721 cells; [1]) [µM] | IC50 (HCT116 cells) [µM] | IC50 (Hep G2 cells) [µM] | IC50 (EJ cells) [µM] | inhibition at 25 µM (SMMC-7721 cells; SMMC-7721, 25 μM, 48 h, MTT assay, read-out: Inhibition of SMMC-7721 cell proliferation) [%] | IC50 (SMMC-7721 cells; read-out: In vitro cytotoxicity (IC50) SMMC-7721) [µM]
1 | Cc1ccccc1C(=O)NCCCNC(=O)c1cc2c(cn1)[nH]c1ccccc12 [7a, N-(3-(2-Methylbenzamido)propyl)-9H-pyrido[3,4-b]indole-3-carboxamide] | 31.1 | 34.7 | 36 | 32 | 25.3 |  | 
2 | Cc1ccccc1C(=O)NCCCNC(=O)c1cc2c([nH]c3ccccc32)c(C)n1 [7b, 1-Methyl-N-(3-(2-methylbenzamido)propyl)-9H-pyrido[3,4-b]indole-3-carboxamide] | 30.5 | 27.3 | 28.9 | 23.7 | 23.2 |  | 
3 | COc1ccc(-c2nc(C(=O)NCCCNC(=O)c3ccccc3C)cc3c2[nH]c2ccccc23)cc1 [7c, 1-(4-Methoxyphenyl)-N-(3-(2-methylbenzamido)propyl)-9H-pyrido[3,4-b]indole-3-carboxamide] | > 50 | > 50 | > 50 | > 50 | > 50 |  | 
4 | Cc1ccccc1C(=O)NCCCCNC(=O)c1cc2c(cn1)[nH]c1ccccc12 [7d, N-(4-(2-Methylbenzamido)butyl)-9H-pyrido[3,4-b]indole-3-carboxamide] | 23.2 | 24.3 | 21.4 | 19.1 | 18.4 |  | 
5 | Cc1ccccc1C(=O)NCCCCNC(=O)c1cc2c([nH]c3ccccc32)c(C)n1 [7e, 1-Methyl-N-(4-(2-methylbenzamido)butyl)-9H-pyrido[3,4-b]indole-3-carboxamide] | 20.1 | 17.8 | 14.8 | 15.2 | 13.3 |  | 
6 | COc1ccc(-c2nc(C(=O)NCCCCNC(=O)c3ccccc3C)cc3c2[nH]c2ccccc23)cc1 [7f, 1-(4-Methoxyphenyl)-N-(4-(2-methylbenzamido)butyl)-9H-pyrido[3,4-b]indole-3-carboxamide] | 38.4 | 25.6 | 32.6 | 31.2 | 29.4 |  | 
7 | Cc1ccccc1C(=O)NCCCCCNC(=O)c1cc2c(cn1)[nH]c1ccccc12 [7g, N-(5-(2-Methylbenzamido)pentyl)-9H-pyrido[3,4-b]indole-3-carboxamide] | 19.4 | 15.9 | 17.1 | 14.3 | 15.3 |  | 
8 | Cc1ccccc1C(=O)NCCCCCNC(=O)c1cc2c([nH]c3ccccc32)c(C)n1 [7h, 1-Methyl-N-(5-(2-methylbenzamido)pentyl)-9H-pyrido[3,4-b]indole-3-carboxamide] | 13.2 | 12.8 | 15.8 | 11.3 | 12.1 |  | 
9 | COc1ccc(-c2nc(C(=O)NCCCCCCNC(=O)c3ccccc3C)cc3c2[nH]c2ccccc23)cc1 [7l, 1-(4-Methoxyphenyl)-N-(6-(2-methylbenzamido)hexyl)-9H-pyrido[3,4-b]indole-3-carboxamide] | > 50 | > 50 | > 50 |  |  |  | 
10 | Cc1nc(C(=O)NCCCNC(=O)c2ccccc2O)cc2c1[nH]c1ccccc12 [8b, N-(3-(2-Hydroxybenzamido)propyl)−1-methyl-9H-pyrido[3,4-b]indole-3-carboxamide] | 22.2 | 19.1 | 13.6 |  | 15.3 |  | 
11 | COc1ccc(-c2nc(C(=O)NCCCCCCNC(=O)c3ccccc3O)cc3c2[nH]c2ccccc23)cc1 [8l, N-(6-(2-Hydroxybenzamido)hexyl)-1-(4-methoxyphenyl)-9H-pyrido[3,4-b]indole-3-carboxamide] | > 50 | > 50 | > 50 | 42 |  |  | 
12 | O=C(O)c1ccccc1O [SA, salicylic acid] |  |  |  |  |  | ~15 | 
13 | COc1ccc2c(c1)[nH]c1c(C)nccc12 [harmine, reference compound] |  |  | 46.7 | 55.3 |  |  | 49.1
